Reference: patent US8987285B2, “Pharmaceutical compositions, dosage forms and new forms of the compound of formula (I), and methods of use thereof” (Portola Pharmaceuticals, Inc., priority 2010, dated 2015)

Assays:
[1] = Wettability: contact angle measurement with water on pressed powder; assay type: physicochemical; conditions: water, in ° (unit assumed)
Experimental: Contact angel instrument: EasyDrop DSA15E (Krüss, Hamburg, Germany)
Syringe: NE44, diameter of needle 0.5 mm (Krüss, Hamburg, Germany)
The powder was pressed (approx 50 mg powder, 3 tons, 2 min) in tablets and analyzed by contact angle measurement. The angel between the solid and the liquid is measured after 0 and up to 60 seconds using water.
All determinations used the above method and the limit for the standards measurements are well within the given limits.

[2] = Super-saturation measurement (CheqSol): intrinsic and kinetic solubility; assay type: physicochemical; conditions: for ratio super saturation: kinetic solubility divided by intrinsic solubility
Description: Anal. Chem. 2005, 77(4), 983-990; 2—Box, K J. Völgyi, G. Baka, E. Stuart, M. Takács-Novák, K. Corner, J E A. Equilibrium vs. kinetic measurements of aqueous solubility, and the ability of compounds to supersaturate in solution—a validation study. J. Pharm. Sci. 2006, 95, 1298-1307; 3—Sköld, C. Winiwarter, S. Johan Wernevik, J. Bergström, F. Engström, L. Allen, R. Box, K. Corner, J. Mole, J. Hallberg, A. Lennernäs, H. Lundstedt, T. Ungell, A-L. Karlén, A. Presentation of a Structurally Diverse and Commercially Available Drug Data Set for Correlation and Benchmarking Studies. J. Med. Chem. 2006, 49(23), 6660-6671;
. Med. Chem.; 2007, 50 (5), 979-983; 5—Llinás, A. Box, K J. Burley, J C. Glen, R C. Goodman, J M. J. A new method for the reproducible generation of polymorphs: two forms of Sulindac with very different solubilities. […] 6—Box K et al, Using Measured pKa, Log P and Solubility to Investigate Supersaturation and Predict BCS Class, Current Drug Metabolism, 2008, 9, 869-878]
1—kinetic solubility is the concentration of a compound in solution at the time when an induced precipitate first appears
2—equilibrium solubility (also called thermodynamic solubility) is the concentration of compound in a saturated solution when excess solid is present, and solution and solid are at equilibrium
3—intrinsic solubility [Hörter, D.; Dressman, J. B. Adv. Drug Deliv. Rev., 1997, 25, 3-14] is the equilibrium solubility of the free acid or base form of an ionisable compound at a pH where it is fully un-ionized
The super-saturation ratio is calculated as the ratio of kinetic solubility divided by the Intrinsic Solubility.

[3] = Pharmacokinetic Study 1: FMI tablets fasted/fed versus reference IR capsule, crossover, healthy adult volunteers; assay type: in vivo, human; conditions: for Geometric-mean ratio (Fed/Fasted) of AUCinf / Geometric-mean ratio (Fed/Fasted) of AUClast / Geometric-mean ratio (Fed/Fasted) of Cmax: high fat breakfast versus fasted
Experimental: This was an open label, randomized, four-period, incomplete crossover, single center study in healthy adult volunteers. There were 4 treatments in the study: 3 doses of the FMI (given fasting or fed following a high-fat breakfast) and one reference IR capsule (given fed after a typical breakfast). The term “FMI” refers to the dosage form of Example 7 (30 mg FMI) or Example 8 (75 mg FMI).
Each subject was randomized to 1 of 18 treatment sequences, each with 4 treatment periods (Table 27). The first treatment period consisted of 1 of the 3 doses of FMI given fed, and treatment periods 2 to 4 consisted of 1 dose of IR capsule (fed) and 2 of the 3 doses of the FMI given fasted. […] Each subject therefore had 2 fasting treatments with the FMI formulation, 1 fed treatment with the FMI formulation and a reference treatment (IR capsule). Seventy two subjects enrolled and were dosed in the study with 70 completers.
The study consisted of a 28-day screening period, four baseline periods (one before each treatment period), four treatment periods with a wash out period of a minimum of 5 days, followed by a study completion evaluation approximately 72 hours after the last drug administration. Subjects who met the eligibility criteria at screening were admitted to baseline evaluations. All baseline safety evaluation results were available prior to dosing.
For fasted administration, elinogrel was administered in the morning, following an overnight fast of at least 10 hours. Subjects continued to fast until 4 hours post-dose. For fed administration of FMI tablets, elinogrel was administered in the morning, within 30 minutes of a high fat breakfast (approximately 1000 calories). Subjects continued to fast until 4 hours post-dose. For fed administration of the reference (IR capsule), it was administered in the morning, within 30 minutes of a typical breakfast (approximately 500 calories). Subjects continued to fast until 4 hours post-dose.
Subjects were admitted to the study site approximately 12 hours prior to dosing in each period for baseline evaluations. Following a single dose of elinogrel, PK assessments were taken up to 48 hours post dose and safety assessments were made for up to 72 hours.
Subjects were domiciled for 24 hours post dosing for PK sample collection, at which time they were discharged from the study site. Subjects returned on the following 2 mornings for 48 hour PK and 72 hour safety samples. Following the 72 hour safety assessments of treatment period 4 (or in the case of subject discontinuation) subjects underwent study completion evaluations and were discharged from the study. […].
This was a three-period, four-treatment crossover study design with an add-on food effect period (Period 1).
Treatment 1 (T1)=elinogrel 30 mg FMI dose fasting
Treatment 2 (T2)=elinogrel 75 mg FMI dose fasting
Treatment 3 (T3)=elinogrel 150 mg FMI dose fasting
Reference (R)=elinogrel 150 mg IR capsule dose fed (typical breakfast); Example 6 (Reference)
Fed treatment 1 (F1)=elinogrel 30 mg FMI dose fed (high fat breakfast)
Fed treatment 2 (F2)=elinogrel 75 mg FMI dose fed (high fat breakfast)
Fed treatment 3 (F3)=elinogrel 150 mg FMI dose fed (high fat breakfast)
Subjects will received the following treatments in a randomized order: • Treatment (T1, F1) with IR (IR=immediate release) tablet of Example 7 containing pH-modifying alkalizing agent, 30 mg in fasted and fed state. • Treatment (T2, F2) with IR (IR=immediate release) tablet of Example 8 containing pH-modifying alkalizing agent, 75 mg in fasted and fed state • Treatment (R) with 2×IR (IR=immediate release) capsule of Example 6 (Reference): 2×75 mg (150 mg) in fed state. • Treatment (T3, F3) with 2×IR (IR=immediate release) tablet of Example 8 containing pH-modifying alkalizing agent, 2×75 mg (150 mg) in fasted and fed state.
To evaluate the food effect, the geometric mean ratio for PK parameters of the fed versus fasted for each dose level and its 90% CI was estimated as shown in Table 29 below.

[4] = Saturation solubility, shake-flask with UV quantification; assay type: physicochemical; conditions: for solubility at 72 h: thermodynamic from solid
Experimental: The FaSSIF and FeSSIF solutions were prepared using Phares SIF powder according to the formulation instructions and the SGF solution was prepared using the guidelines provided. […] The pH and temperature of the supernatant were measured on a SiriusT3 instrument.

CNc1cc2[nH]c(=O)n(-c3ccc(NC(=O)NS(=O)(=O)c4ccc(Cl)s4)cc3)c(=O)c2cc1F [compound of formula (II), elinogrel]
Contact angle ([1]; 0 sec): 65.9 | Contact angle ([1]; 30 sec): 60.8 | Contact angle ([1]; 60 sec): 60.1 | solubility kinetic ([2]; kinetic from dmso stock, CheqSol): 4.17 µg/mL | ratio super saturation ([2]; listed as Free acid): 179 | ratio super saturation ([2]; listed as free acid of formula (II)): 178 | solubility ([2]; thermodynamic from solid, CheqSol): 0.0234 µg/mL | decrease of AUC by high fat meal ([3]; 30 mg dose): 44-52% | decrease of Cmax by high fat meal ([3]; 30 mg dose): 58% | decrease of AUC by high fat meal ([3]; 75 mg dose): 14-18% | decrease of Cmax by high fat meal ([3]; 75 mg dose): 36% | decrease of AUC by high fat meal ([3]; 150 mg dose): 29-30% | decrease of Cmax by high fat meal ([3]; 150 mg dose): 48% | Geometric-mean ratio (Fed/Fasted) of AUCinf ([3]; FMI 30 mg): 0.48 | Geometric-mean ratio (Fed/Fasted) of AUClast ([3]; FMI 30 mg): 0.56 | Geometric-mean ratio (Fed/Fasted) of Cmax ([3]; FMI 30 mg): 0.42 | Geometric-mean ratio (Fed/Fasted) of AUCinf ([3]; FMI 75 mg): 0.86 | Geometric-mean ratio (Fed/Fasted) of AUClast ([3]; FMI 75 mg): 0.82 | Geometric-mean ratio (Fed/Fasted) of Cmax ([3]; FMI 75 mg): 0.64 | Geometric-mean ratio (Fed/Fasted) of AUCinf ([3]; FMI 150 mg): 0.71 | Geometric-mean ratio (Fed/Fasted) of AUClast ([3]; FMI 150 mg): 0.70 | Geometric-mean ratio (Fed/Fasted) of Cmax ([3]; FMI 150 mg): 0.52 | final pH measured of the supernatant ([4]; FaSSIF pH 6.5-1w): 6.42 | final pH measured of the supernatant ([4]; FeSSIF pH 5.0-1w): 4.97 | final pH measured of the supernatant ([4]; Na Phosphate pH 6.8): 6.80 | final pH measured of the supernatant ([4]; Na-Acetate pH 4.5): 4.53 | final pH measured of the supernatant ([4]; SGF pH 2.1): 2.21 | solubility at 72 h ([4]; aqueous buffer, Na Phosphate pH 6.8, mean N = 2): 11.3 µg/mL | solubility at 72 h ([4]; aqueous buffer, Na-Acetate pH 4.5, mean N = 2): 0.89 µg/mL | solubility at 72 h ([4]; simulated gastric fluid, SGF pH 2.1, mean N = 2): 0.48 µg/mL | solubility at 72 h ([4]; FaSSIF pH 6.5-1w, mean N = 2): 25.2 µg/mL | solubility at 72 h ([4]; FeSSIF pH 5.0-1w, mean N = 2): 6 µg/mL
